Data from US9386769B2 (HUNAN RESEARCH INSTITUTE OF CHEMICAL INDUSTRY CO., LTD., priority 2011, dated 2016).
Read-outs that look alike come from different tables or passages of the source.

Experiments:
Sclerotinia sclerotiorum = assay: Fungicidal activity against Sclerotinia sclerotiorum, mycelial growth inhibition on PDA plate; format: cell-based; conditions: Sclerotinia sclerotiorum; for inhibition at 2.5 µg/mL: 2.5 mg/L; for inhibition at 5 µg/mL: 5 mg/L
Protocol: (§1) Bioassay method: Stock solution of every test compound was prepared in an appropriate solvent such as N,N-dimethylformamide (DMF), and then diluted to the required test concentrations with sterile water containing 0.1% Tween 80; Pipetted 3 mL of test solution to 27 mL of potato dextrose agar (PDA) medium at 45° C. and poured into a Petri dish to prepare a plate after shaking thoroughly; 6 mm of diameter of fungi cake from the edge of 7-day-old […] colony was inoculated on the central of the plate, wherein mycelium facing down, and cultured in the culture tank at 28° C. The diameter of fungi spread was calculated 4 days later using the control group tested with the diluent only. Test was run 4 times. Data were subjected to EXCEL statistical software analysis and the growth inhibition of the tested compound was calculated according to the corresponding control, the activity was rated on the basis of percentage of growth inhibition using the following rating system: A, inhibition (%)>90; B, 90≧inhibition (%)>70; C, 70≧inhibition (%)>50; D, inhibition (%)≦50.

Botrytis cinerea = assay: Fungicidal activity against Botrytis cinerea, mycelial growth inhibition on PDA plate; format: cell-based; conditions: Botrytis cinerea; for inhibition at 2.5 µg/mL: 2.5 mg/L; for inhibition at 5 µg/mL: 5 mg/L
Protocol: as §1
Fungicidal activities against Botrytis cinerea of compounds represented by the general formula (I) were evaluated with the corresponding method in Example 18, and some of the test results are shown in Table 6 to Table 8.

Alternaria alternata = assay: Fungicidal activity against Alternaria alternata, mycelial growth inhibition on PDA plate; format: cell-based; conditions: Alternaria alternata
Protocol: as §1
Fungicidal activities against Alternaria alternata of compounds represented by the general formula (I) were evaluated with the corresponding method in Example 18, and some of the test results are shown in Table 9 to Table 10.

Cercospora arachidicola = assay: Fungicidal activity against Cercospora arachidicola; format: cell-based; conditions: 25 mg/L
Protocol: as §1

Alternaria mali = assay: Fungicidal activity against Alternaria mali; format: cell-based; conditions: 25 mg/L
Protocol: as §1

Sphaceloma ampelinum = assay: Fungicidal activity against Sphaceloma ampelinum; format: cell-based; conditions: 25 mg/L
Protocol: as §1

Marssonina coronaria = assay: Fungicidal activity against Marssonina coronaria; format: cell-based; conditions: 25 mg/L
Protocol: as §1

Fusarium oxysporum = assay: Fungicidal activity against Fusarium oxysporum; format: cell-based; conditions: 25 mg/L
Protocol: as §1

Alternaria solani = assay: Fungicidal activity against Alternaria solani; format: cell-based; conditions: 25 mg/L
Protocol: as §1

Aphis fabae = assay: Insecticidal activity against Aphis fabae, dipping of horsebean seedlings; format: in vivo; conditions: 24 h
Protocol: Bioassay method: Stock solution of every test compound was prepared in an appropriate solvent such as N,N-dimethylformamide, and a small amount of Tween 80 was added as emulsification agent, then diluted to the required test concentrations with distilled water, using the control group tested with distilled water only. More than 20 adults of Aphis fabae were transferred to newly unearthed horsebean seedlings and 24 hr later, horsebean seedlings with Aphis fabae were dipped in the test solution for 5 s, then allowed to dry with filter paper, transplanted to the absorbent sponge and covered with a glass tube, then kept in a room for normal cultivation. Each assay contained three replications, and results were averaged. Mortality was assessed 24 hr after the treatment. The activity was rated to A, B, C or D according to the rating system in Example 22.

[1] = tested on: Alternaria solani, Fusarium oxysporum, Marssonina coronaria, Sphaceloma ampelinum, Apple canker, Cercospora arachidicola and Alternaria mali; assay: Fungicidal activities against several pathogens (Example 21), comparison with Procymidone; format: cell-based; conditions: several pathogens of Example 21
Protocol: as §1

[2] = Table 4, read-out: activities against Sclerotinia sclerotiorum (growth inhibition)
[3] = Table 5, read-out: activities against Sclerotinia sclerotiorum (growth inhibition)
[4] = Table 7, read-out: activities against Botrytis cinerea (growth inhibition)
[5] = Table 8, read-out: activities against Botrytis cinerea (growth inhibition)
[6] = read-out: activities against Aphis fabae (mortality)

Compound: CCN(Cc1cnc(Cl)s1)c1nc(OC)ccc1[N+](=O)[O-] [Compound 05, 6-methoxy-N-((2-chlorothiazole-5-yl)methyl)-N-ethyl-3-nitropyridin-2-amine]
- inhibition at 0.1562 µg/mL (Sclerotinia sclerotiorum; 0.1562 mg/L, Table 5, read-out: activities against Sclerotinia sclerotiorum (growth inhibition)): 63%
- inhibition at 0.3125 µg/mL (Sclerotinia sclerotiorum; 0.3125 mg/L, Table 5, read-out: activities against Sclerotinia sclerotiorum (growth inhibition)): 63%
- inhibition at 0.625 µg/mL (Sclerotinia sclerotiorum; 0.625 mg/L, Table 5, read-out: activities against Sclerotinia sclerotiorum (growth inhibition)): 68%
- inhibition at 1.25 µg/mL (Sclerotinia sclerotiorum; 1.25 mg/L, Table 4, read-out: activities against Sclerotinia sclerotiorum (growth inhibition)): 95%
- inhibition at 1.255 µg/mL (Sclerotinia sclerotiorum; 1.255 mg/L, Table 5, read-out: activities against Sclerotinia sclerotiorum (growth inhibition)): 73%
- inhibition at 2.5 µg/mL (Sclerotinia sclerotiorum; [2]): 99%
- inhibition at 2.5 µg/mL (Sclerotinia sclerotiorum; [3]): 90%
- inhibition at 5 µg/mL (Sclerotinia sclerotiorum; [2]): 100%
- inhibition at 5 µg/mL (Sclerotinia sclerotiorum; [3]): 96%
- inhibition at 10 µg/mL (Sclerotinia sclerotiorum; 10 mg/L, Table 4, read-out: activities against Sclerotinia sclerotiorum (growth inhibition)): 100%
- inhibition at 25 µg/mL (Sclerotinia sclerotiorum; 25 mg/L, read-out: activities against Sclerotinia sclerotiorum (growth inhibition rating)): > 90%
- inhibition at 0.1562 µg/mL (Botrytis cinerea; 0.1562 mg/L, Table 8, read-out: activities against Botrytis cinerea (growth inhibition)): 78%
- inhibition at 0.3125 µg/mL (Botrytis cinerea; 0.3125 mg/L, Table 8, read-out: activities against Botrytis cinerea (growth inhibition)): 84%
- inhibition at 0.625 µg/mL (Botrytis cinerea; 0.625 mg/L, Table 8, read-out: activities against Botrytis cinerea (growth inhibition)): 88%
- inhibition at 1.25 µg/mL (Botrytis cinerea; 1.25 mg/L, Table 7, read-out: activities against Botrytis cinerea (growth inhibition)): 89%
- inhibition at 1.255 µg/mL (Botrytis cinerea; 1.255 mg/L, Table 8, read-out: activities against Botrytis cinerea (growth inhibition)): 94%
- inhibition at 2.5 µg/mL (Botrytis cinerea; [4]): 92%
- inhibition at 2.5 µg/mL (Botrytis cinerea; [5]): 98%
- inhibition at 5 µg/mL (Botrytis cinerea; [4]): 97%
- inhibition at 5 µg/mL (Botrytis cinerea; [5]): 100%
- inhibition at 10 µg/mL (Botrytis cinerea; 10 mg/L, Table 7, read-out: activities against Botrytis cinerea (growth inhibition)): 100%
- inhibition at 25 µg/mL (Botrytis cinerea; 25 mg/L, read-out: activities against Botrytis cinerea (growth inhibition rating)): > 90%
- inhibition at 2.5 µg/mL (Alternaria alternata; 2.5 mg/L, read-out: activities against Alternaria alternata (growth inhibition)): 45%
- inhibition at 5 µg/mL (Alternaria alternata; 5 mg/L, read-out: activities against Alternaria alternata (growth inhibition)): 75%
- inhibition at 10 µg/mL (Alternaria alternata; 10 mg/L, read-out: activities against Alternaria alternata (growth inhibition)): 81%
- inhibition at 25 µg/mL (Alternaria alternata; 25 mg/L, read-out: activities against Alternaria alternata (growth inhibition rating)): 70 to 90%
- activity against Cercospora arachidicola (Cercospora arachidicola): 88%
- activity against Alternaria mali (Alternaria mali): 82%
- activity against Sphaceloma ampelinum (Sphaceloma ampelinum): 93%
- activity against Marssonina coronaria (Marssonina coronaria): 78%
- activity against Fusarium oxysporum (Fusarium oxysporum): 38%
- activity against Alternaria solani (Alternaria solani): 87%
- mortality at 500 µg/mL (Aphis fabae; read-out: activities against Aphis fabae (mortality rating)): > 90%
- mortality at 6.25 µg/mL (Aphis fabae; [6]): 12.7%
- mortality at 25 µg/mL (Aphis fabae; [6]): 46.5%
- mortality at 100 µg/mL (Aphis fabae; [6]): 87.5%
- fungicidal activity compared with the commercial fungicide Procymidone [1]: better than or equal to that of the commercial fungicide Procymidone
